These results are taken from patent publication US8143251B2, “Triazolotriazines as kinase inhibitors” (Incyte Corporation, priority 2006, dated 2012).

The target of the assay is T1, c-Met kinase (histidine-tagged c-Met catalytic domain fusion protein) (Homo sapiens, UniProt P08581).
T1 construct: histidine-tagged c-Met catalytic domain fusion protein (Invitrogen, #PV3143) was used for the assay; histidine tag; purchased Invitrogen PV3143
The assay can be described thus: In vitro c-Met kinase enzyme assay. It counts as biochemical. The conditions noted are these: poly Glu-Tyr phosphorylation, 5 μM ATP, 25 minutes at 30° C.; read-out: IC50 for the inhibition of c-Met kinase. The protocol:
Compounds were screened in vitro for their ability to inhibit c-Met kinase activity. The IC50 values of compounds for the inhibition of c-Met kinase were determined as described in the literature with some modifications (Wang, X. et al, Mol. Cancer. Ther. 2003, 2(11):1085-1092; Calic, M. et al., Croatica Chemical ACTA. 2005, 78(3):367-374). Briefly, histidine-tagged c-Met catalytic domain fusion protein (Invitrogen, #PV3143) was used for the assay. IC50 measurements were based on the degree of phosphorylation of poly Glu-Tyr (Sigma-Aldrich, #PO275) that was coated (0.01 mg/per well) on 96-well microplates (R&D systems, #DY990). The reaction was carried out in a 50 μL solution containing 50 mM HEPES (pH 7.5), 10 mM MnCl2, 10 mM MgCl2, 0.5 mM DTT, 100 μM Na3VO4, 5 μM ATP (Cell Signaling Technology, #9804) and serial dilutions of individual compounds. The reaction lasted for 25 minutes at 30° C. After the reaction was completed, the contents of the plates was discarded. […] The optical density was measured immediately using a microplate reader at 450 nm with wavelength correction at 540 nm. IC50 values were calculated with the GraphPad Prism software. The linear range (i.e., the time period over which the rate remained equivalent to the initial rate) was determined for the kinase and IC50 determinations were performed within this range. […]

T1 sequence (P08581 1078-1345 limits assumed): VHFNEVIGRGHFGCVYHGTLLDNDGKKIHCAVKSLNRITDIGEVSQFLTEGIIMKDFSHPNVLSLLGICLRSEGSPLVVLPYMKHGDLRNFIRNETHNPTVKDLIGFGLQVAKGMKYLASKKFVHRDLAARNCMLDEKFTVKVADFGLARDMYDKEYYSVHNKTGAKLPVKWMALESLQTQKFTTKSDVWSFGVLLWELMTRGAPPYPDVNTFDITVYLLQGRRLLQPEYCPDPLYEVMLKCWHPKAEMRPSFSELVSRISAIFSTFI

For the compound `COc1ccc(C2(c3nnc4ncc(-c5ccccc5)nn34)CC2)cc1` [Example 26, 3-[1-(4-Methoxyphenyl)cyclopropyl]-6-phenyl[1,2,4]triazolo[4,3-b][1,2,4]triazine], the IC50 was 12.9 nM.

One may read the IC50 as the concentration at which inhibition is half-maximal.
